Here are results for 12 compounds from PubChem BioAssay AID248 (DTP/NCI, 2004).

The test system of the experiment is L1210 leukemia ip in BDF1 mice, survival T/C. Description: NCI In Vivo Anticancer Drug Screen. Data for tumor model L1210 Leukemia (intraperitoneal) in B6D2F1 (BDF1) mice. As to conditions: endpoint: mean survival time, higher = longer survival. In outline:
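Antitumor effect is assessed in tumor-bearing animals. Survival in the compound arm is compared with a vehicle-dosed control arm and expressed as their quotient.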

[1] abbreviates: dose: 200.0 mg/kg/injection, schedule: Q01DX001 (ip), vehicle: carboxymethylcellulose (CMC).
Setting [2] is: dose: 400.0 mg/kg/injection, schedule: Q01DX001 (ip), vehicle: carboxymethylcellulose (CMC).
Setting [3] is: dose: 100.0 mg/kg/injection, schedule: Q01DX001 (ip), vehicle: saline.
Setting [4] is: dose: 25.0 mg/kg/injection, schedule: Q01DX009 (ip), vehicle: Klucel (hydroxypropylcellulose) (HPC).
The mark [5] stands for this setting: dose: 50.0 mg/kg/injection, schedule: Q01DX009 (ip), vehicle: Klucel (hydroxypropylcellulose) (HPC).
Setting [6] is: dose: 100.0 mg/kg/injection, schedule: Q01DX009 (ip), vehicle: Klucel (hydroxypropylcellulose) (HPC).
[7] abbreviates: dose: 100.0 mg/kg/injection, schedule: Q04DX002 (ip), vehicle: Klucel (hydroxypropylcellulose) (HPC).
Setting [8] is: dose: 200.0 mg/kg/injection, schedule: Q04DX002 (ip), vehicle: Klucel (hydroxypropylcellulose) (HPC).
Where [9] appears, read: dose: 400.0 mg/kg/injection, schedule: Q04DX002 (ip), vehicle: Klucel (hydroxypropylcellulose) (HPC).

Several values for one entry are separate records, joined by “and”; a condition that tells them apart may be missing. Equal values may be shown once. Toxic doses and inconclusive results are not listed.

For `CC[N+](C)(C)C(C)(C)C`, the T/C runs as follows: (dose: 18.75 mg/kg/injection, schedule: Q01DX001 (ip), vehicle: saline) 112 % of control; (dose: 37.5 mg/kg/injection, schedule: Q01DX001 (ip), vehicle: saline) 105 % of control; (dose: 75.0 mg/kg/injection, schedule: Q01DX001 (ip), vehicle: saline) 105 % of control.
For `COc1cc(C=Nc2cc(Br)cc(Br)c2)ccc1N(CCCl)CCCl`, the T/C reads like this: (dose: 1.31 mg/kg/injection, schedule: Q01DX009 (ip), vehicle: other) 113 % of control; (dose: 2.62 mg/kg/injection, schedule: Q01DX009 (ip), vehicle: other) 104 % of control; (dose: 12.5 mg/kg/injection, schedule: Q01DX001 (ip), vehicle: other) 106 % of control; (dose: 25.0 mg/kg/injection, schedule: Q01DX001 (ip), vehicle: other) 120 % of control; (dose: 50.0 mg/kg/injection, schedule: Q01DX009 (ip), vehicle: other) 124 % of control; (dose: 118.0 mg/kg/injection, schedule: Q01DX001 (ip), vehicle: carboxymethylcellulose (CMC)) 123 % of control. The T/C (dose: 177.0 mg/kg/injection, schedule: Q01DX001 (ip), vehicle: carboxymethylcellulose (CMC)) is 94 % of control and 108 % of control; the T/C under setting [1] is 124 % of control; the T/C (dose: 266.0 mg/kg/injection, schedule: Q01DX001 (ip), vehicle: carboxymethylcellulose (CMC)) is 88 % of control; the T/C under setting [2] is 179 % of control.
As to `CCCCCNC(C)=O`, the T/C (dose: 200.0 mg/kg/injection, schedule: Q01DX009 (ip), vehicle: saline) is 108 % of control.
Regarding `Cc1cc(C)c(C(=O)CBr)c(C)c1`, the T/C reads like this: (dose: 100.0 mg/kg/injection, schedule: Q01DX001 (ip), vehicle: carboxymethylcellulose (CMC)) 112 % of control; under setting [3], 101 % of control; under setting [1], 106 % of control; (dose: 200.0 mg/kg/injection, schedule: Q01DX001 (ip), vehicle: saline) 101 % of control; under setting [2], 101 % of control; (dose: 400.0 mg/kg/injection, schedule: Q01DX001 (ip), vehicle: saline) 110 % of control.
Turning to `CCO/C=C1\SC(=S)N(c2cccc(O)c2)C1=O`, the T/C runs as follows: under setting [4], 86 % of control; under setting [5], 113 % of control; under setting [6], 93 % of control.
On to `OC(c1ccc(Br)cc1)C(O)c1ccc(Br)cc1` (stereo not drawn), for which the T/C reads like this: (dose: 50.0 mg/kg/injection, schedule: Q04DX002 (ip), vehicle: saline with Tween-80) 104 % of control; (dose: 100.0 mg/kg/injection, schedule: Q04DX002 (ip), vehicle: saline with Tween-80) 104 % of control; (dose: 200.0 mg/kg/injection, schedule: Q04DX002 (ip), vehicle: saline with Tween-80) 97 % of control.
With `COc1ccc(/C=N/NC(=O)c2ccc(N)cc2)cc1`, the T/C reads like this: under setting [7], 106 % of control; under setting [8], 100 % of control; under setting [9], 95 % of control.
Regarding `O=C1CCCC(=O)C1C(C[N+](=O)[O-])c1ccccc1` (stereo not drawn), the T/C (dose: 12.5 mg/kg/injection, schedule: Q01DX009 (ip), vehicle: Klucel (hydroxypropylcellulose) (HPC)) is 97 % of control; the T/C under setting [4] was 93 % of control; the T/C under setting [5] was 90 % of control; the T/C under setting [6] is 88 % of control; the T/C (dose: 100.0 mg/kg/injection, schedule: Q04DX003 (ip), vehicle: Klucel (hydroxypropylcellulose) (HPC)) is 98 % of control.
On to `CC(C)c1nccn1Cc1ccccc1`, for which the T/C runs as follows: (dose: 25.0 mg/kg/injection, schedule: Q01DX001 (ip), vehicle: saline) 97 % of control; (dose: 25.0 mg/kg/injection, schedule: Q01DX009 (ip), vehicle: saline) 105 % of control and 118 % of control; (dose: 25.0 mg/kg/injection, schedule: Q04DX002 (ip), vehicle: saline) 100 % of control and 101 % of control and 90 % of control; (dose: 25.0 mg/kg/injection, schedule: Q04DX003 (ip), vehicle: saline) 100 % of control; (dose: 50.0 mg/kg/injection, schedule: Q01DX001 (ip), vehicle: saline) 97 % of control; (dose: 50.0 mg/kg/injection, schedule: Q01DX009 (ip), vehicle: saline) 100 % of control and 102 % of control. The T/C by setting is: (dose: 50.0 mg/kg/injection, schedule: Q04DX003 (ip), vehicle: saline) 92 % of control; (dose: 75.0 mg/kg/injection, schedule: Q04DX002 (ip), vehicle: saline) 106 % of control; under setting [3], 112 % of control; (dose: 100.0 mg/kg/injection, schedule: Q01DX009 (ip), vehicle: saline) 100 % of control and 89 % of control.
Turning to `O=C(Nc1cc([N+](=O)[O-])ccc1Cl)c1ccc(F)cc1`, the T/C by setting is: under setting [7], 102 % of control; under setting [8], 98 % of control; under setting [9], 102 % of control.
In the case of `COc1cc(C(=O)NCC2(C)OC3(OC(=O)C2O)C(=O)N/C(=C(\C=O)C(C)=O)OC3C(O)C2CN2C(C)=O)c2cccc(C)c2c1` (stereo not drawn), the T/C was 107 % of control (dose: 0.05 mg/kg/injection, schedule: Q01DX015 (oral), vehicle: clinical formulation); 104 % of control and 120 % of control (dose: 0.1 mg/kg/injection, schedule: Q01DX001 (ip), vehicle: clinical formulation); 113 % of control (dose: 0.1 mg/kg/injection, schedule: Q01DX015 (oral), vehicle: clinical formulation); 111 % of control (dose: 0.15 mg/kg/injection, schedule: Q03DX005 (ip), vehicle: clinical formulation); 103 % of control (dose: 0.2 mg/kg/injection, schedule: Q01DX001 (ip), vehicle: clinical formulation); 105 % of control (dose: 0.2 mg/kg/injection, schedule: Q07DX003 (ip), vehicle: clinical formulation). Moreover, the T/C is, setting by setting: (dose: 0.4 mg/kg/injection, schedule: Q01DX001 (ip), vehicle: clinical formulation) 95 % of control and 115 % of control; (dose: 0.8 mg/kg/injection, schedule: Q01DX001 (ip), vehicle: clinical formulation) 107 % of control; (dose: 3.5 micrograms/kg/injection, schedule: Q03DX005 (ip), vehicle: clinical formulation) 114 % of control; (dose: 6.0 micrograms/kg/injection, schedule: Q01DX015 (ip), vehicle: clinical formulation) 112 % of control; (dose: 6.0 micrograms/kg/injection, schedule: Q01DX045 (ip), vehicle: clinical formulation) 124 % of control; (dose: 7.0 micrograms/kg/injection, schedule: Q03DX005 (ip), vehicle: clinical formulation) 122 % of control. The T/C by setting is: (dose: 12.5 micrograms/kg/injection, schedule: Q01DX006 (iv), vehicle: clinical formulation) 109 % of control; (dose: 12.5 micrograms/kg/injection, schedule: Q01DX015 (im), vehicle: clinical formulation) 103 % of control; (dose: 12.5 micrograms/kg/injection, schedule: Q01DX045 (ip), vehicle: clinical formulation) 118 % of control; (dose: 13.0 micrograms/kg/injection, schedule: Q01DX Z (ip), vehicle: saline) 113 % of control; (dose: 13.0 micrograms/kg/injection, schedule: Q07DX003 (ip), vehicle: clinical formulation) 118 % of control; (dose: 25.0 micrograms/kg/injection, schedule: Q01DX006 (iv), vehicle: clinical formulation) 101 % of control. In addition, the T/C reads like this: (dose: 25.0 micrograms/kg/injection, schedule: Q01DX015 (im), vehicle: clinical formulation) 109 % of control; (dose: 25.0 micrograms/kg/injection, schedule: Q01DX Z (ip), vehicle: saline) 113 % of control; (dose: 25.0 micrograms/kg/injection, schedule: Q07DX003 (ip), vehicle: clinical formulation) 124 % of control; (dose: 50.0 micrograms/kg/injection, schedule: Q01DX006 (iv), vehicle: clinical formulation) 115 % of control; (dose: 50.0 micrograms/kg/injection, schedule: Q01DX015 (im), vehicle: clinical formulation) 115 % of control; (dose: 50.0 micrograms/kg/injection, schedule: Q01DX Z (ip), vehicle: saline) 98 % of control and 107 % of control. For the same compound, the T/C is, setting by setting: (dose: 100.0 micrograms/kg/injection, schedule: Q01DX006 (iv), vehicle: clinical formulation) 123 % of control; (dose: 100.0 micrograms/kg/injection, schedule: Q01DX015 (im), vehicle: clinical formulation) 110 % of control; (dose: 100.0 micrograms/kg/injection, schedule: Q01DX015 (ip), vehicle: clinical formulation) 95 % of control; (dose: 100.0 micrograms/kg/injection, schedule: Q01DX Z (ip), vehicle: saline) 89 % of control.
On to `COc1cc([N+](=O)[O-])ccc1NC(=O)c1cccc([N+](=O)[O-])c1C(=O)O`, for which the T/C runs as follows: under setting [7], 95 % of control; under setting [8], 103 % of control; under setting [9], 100 % of control.
